# Publication PMC11089505, “Structural Elucidation and Antiviral Activity of Covalent Cathepsin L Inhibitors” (Journal of Medicinal Chemistry, 2024)
# “And” between values parts separate entries of the source, which are not always exact repeats. Equal values may be shown once. Read-outs that look alike come from different tables or passages of the source. Peptide text beside a SMILES is read from it. * marks the point of attachment. Cbz = O=C(OCc1ccccc1)*
# Legend:
# [1] = molecular target: T1, CatL (Homo sapiens, UniProt P07711, T223A); assay: NanoDSF, thermal stability of CatL; type: binding
# T1 construct: made in house; host or cells: Komagataella pastoris strain GS115
# [2] = Cell viability assay (CellTiter-Blue); settings: African green monkey
# [3] = molecular target: SARS-CoV-2 Mpro (Severe acute respiratory syndrome coronavirus 2, UniProt P0DTD1); type: binding; settings: for ΔTm (for Mpro), 2:1 compound to protein mixing ratio: 8 µM Mpro, pH 7.5, 2% DMSO; for 2:1, Tm average (Mpro): 2:1 compound to protein
# [4] = molecular target: T1, CatL; assay: CatL inhibition assay (Ki), substrate Z-RR-AMC; type: biochemical
# Procedure: Experiments were performed in a solution of 50 mM sodium acetate, pH 4.0, 50 mM NaCl, 0.1% PEG 6000, and 5 mM DTT. Distinct assays with epoxide inhibitors at pH 6.0 were performed in 50 mM sodium phosphate buffer, 50 mM NaCl, 5 mM DTT, 0.1% PEG 6000, adjusted to pH 6.0.
# M1000 pro plate reader (Tecan), the fluorescent peptide substrate Z-RR-AMC, and excitation and emission wavelengths of 370 and 460 nm, respectively.
# At first, the inhibitor concentration span was optimized for each inhibitor and the assay buffer. For this initial screening, CatL (5 nM) was mixed with different concentrations of inhibitors (1 nM–50 μM) to determine the range of their inhibition. […] Reaction data were fitted to the […] in GraphPad Prism 9 software: Y = bottom + (top – bottom)/(1 + 10^∧((log IC50 – X) × HillSlope)); X is the log of dose or concentration, Y is the response (fluorescence signal), decreasing as X increases, top and bottom are the plateaus in the same units as Y, log IC50 same log units as X, HillSlope is the slope factor or called the Hill slope.
# [5] = 5 µM CatL, pH 5.0, 2% DMSO, 20:1
# T1 sequence (P07711 114-333 T223A): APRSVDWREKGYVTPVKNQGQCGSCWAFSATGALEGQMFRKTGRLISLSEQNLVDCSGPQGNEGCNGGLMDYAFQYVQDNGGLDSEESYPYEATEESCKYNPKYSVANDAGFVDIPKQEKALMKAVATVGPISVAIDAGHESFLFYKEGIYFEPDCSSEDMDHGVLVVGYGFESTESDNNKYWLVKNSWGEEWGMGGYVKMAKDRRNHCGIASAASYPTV
structure (smiles),measurement,setting,value
"Cc1ccc(S(=O)(=O)N[C@@H](Cc2ccccc2)C(=O)CCl)cc1 [TPCK, N-α-Tosyl-L-phenylalanyl chloromethyl ketone]","2:1, Tm average (CatL)",[1],67.8 °C
same,"ΔTm [K] for CatL, 2:1 ratio",[1],4.7 ± 0.1 K
same,"ΔTm (for CatL), 2:1 compound to protein mixing ratio",[1]; pH 5,"4,7 ± 0,1 °C and 4.7 °C"
same,"ΔTm (for CatL), 20:1 compound to protein mixing ratio",[1]; pH 5,"7,0 ± 0,1 °C and 7 °C"
CC(C)C[C@@H](C=O)NC(=O)[C@@H](NS(=O)(=O)c1ccc(F)cc1)C(C)C [CIVI],"viability at 48 h, 1e-05 µM",[2],95.9%
same,"viability at 48 h, 0.0001 µM",[2],96.7%
same,"viability at 48 h, 0.001 µM",[2],93.8%
same,"viability at 48 h, 0.01 µM",[2],95.9%
same,"viability at 48 h, 0.1 µM",[2],95.1%
same,"viability at 48 h, 1 µM",[2],98.8%
same,"viability at 48 h, 10 µM",[2],98.3%
"CCOC(=O)[C@H]1O[C@@H]1C(=O)N[C@@H](CC(C)C)C(=O)NCCC(C)C [E-64d, Ethyl (2S,3S)-3-[[(2S)-4-methyl-1-(3-methylbutylamino)-1-oxopentan-2-yl]carbamoyl]oxirane-2-carboxylate]","ΔTm (for CatL), 2:1 compound to protein mixing ratio","[1]; 5 µM CatL, pH 5.0, 2% DMSO, 2:1","4,5 ± 0,1 °C and 4.5 °C"
same,"ΔTm (for CatL), 20:1 compound to protein mixing ratio",[1]; [5],"11,7 ± 0,4 °C and 11.7 °C"
same,"2:1, Tm average (CatL)",[1]; 2:1 compound to protein,67.6 °C
same,"20:1, Tm average (CatL)",[1]; 20:1 compound to protein,74.8 °C
same,"ΔTm [K] for CatL, 2:1 ratio","[1]; Table S1, 2:1 ratio",4.5 ± 0.1 K
same,"ΔTm (for Mpro), 2:1 compound to protein mixing ratio",[3],"-0,3 ± 0,3 °C"
same,"ΔTm (for Mpro), 2:1 compound to protein mixing ratio",[3]; listed as E-64d/Aloxistatin,-0.3 °C
same,"2:1, Tm average (Mpro)",[3],54.7 °C
CN(C)C(=O)COC(=O)Cc1ccc(OC(=O)c2ccc(NC(=N)N)cc2)cc1 [Camostat],"ΔTm (for CatL), 20:1 compound to protein mixing ratio",[1]; [5],-0.2 °C
same,"20:1, Tm average (CatL)",[1]; 20:1 compound to protein,62.9 °C
same,"ΔTm (for Mpro), 2:1 compound to protein mixing ratio",[3],-0.4 °C
same,"2:1, Tm average (Mpro)",[3],54.6 °C
"CC(C)(C)OC(=O)Nc1cccn([C@@H](CC2CC2)C(=O)N[C@@H](C[C@@H]2CCNC2=O)C(=O)C(=O)NCc2ccccc2)c1=O [13b, tert-Butyl N-[1-[(2S)-1-[[(2S)-4-(benzylamino)-3,4-dioxo-1-[(3S)-2-oxopyrrolidin-3-yl]butan-2-yl]amino]-3-cyclopropyl-1-oxopropan-2-yl]-2-oxopyridin-3-yl]carbamate]","2:1, Tm average (CatL)",[1],68.7 °C
same,"20:1, Tm average (CatL)",[1],76.7 °C
same,"ΔTm (for CatL), 2:1 compound to protein mixing ratio",[1]; pH 5,"5,6 ± 0,1 °C and 5.6 °C"
same,"ΔTm (for CatL), 20:1 compound to protein mixing ratio",[1]; pH 5,"13,6 ± 0,1 °C and 13.6 °C"
same,Residual activity (Vi/V0),[4]; 13b 31.346 nM,0.9675 and 0.9627 and 0.6897 and 0.9692 and 0.9864 and 0.9669
same,Residual activity (Vi/V0),[4]; 13b 52.243 nM,0.8888 and 0.9182 and 0.9209 and 0.8812 and 0.9125
same,remaining activity at 0.052243 µM,"[4]; 13b 52.243 nM, read-out: Residual activity (Vi/V0)",90.6%
same,Residual activity (Vi/V0),[4]; 13b 87.071 nM,0.8265 and 0.8739 and 0.8771 and 0.8407 and 0.8552
same,remaining activity at 0.087071 µM,"[4]; 13b 87.071 nM, read-out: Residual activity (Vi/V0)",84.2%
same,Residual activity (Vi/V0),[4]; 13b 145.119 nM,0.7626 and 0.6965 and 0.7661 and 0.7352 and 0.7663
same,remaining activity at 0.145119 µM,"[4]; 13b 145.119 nM, read-out: Residual activity (Vi/V0)",77.4%
same,Residual activity (Vi/V0),[4]; 13b 241.865 nM,0.6661 and 0.7001 and 0.6736 and 0.645 and 0.6598
same,Residual activity (Vi/V0),[4]; 13b 403.108 nM,0.5626 and 0.5615 and 0.5111 and 0.5683 and 0.5779
same,remaining activity at 0.403108 µM,"[4]; 13b 403.108 nM, read-out: Residual activity (Vi/V0)",56.2%
same,Residual activity (Vi/V0),[4]; 13b 671.846 nM,0.4836 and 0.4354 and 0.4683 and 0.4708 and 0.465
same,remaining activity at 0.671846 µM,"[4]; 13b 671.846 nM, read-out: Residual activity (Vi/V0)",47.5%
same,Residual activity (Vi/V0),[4]; 13b 1119.744 nM,0.4051 and 0.4054 and 0.4004 and 0.3916 and 0.3989
same,remaining activity at 1.11974 µM,"[4]; 13b 1119.744 nM, read-out: Residual activity (Vi/V0)",38.3%
same,Residual activity (Vi/V0),[4]; 13b 1866.240 nM,0.3283 and 0.3165 and 0.3193 and 0.3153 and 0.3192
same,remaining activity at 1.86624 µM,"[4]; 13b 1866.240 nM, read-out: Residual activity (Vi/V0)",32.5%
same,Residual activity (Vi/V0),[4]; 13b 3110.400 nM,0.258 and 0.2535 and 0.24 and 0.2503 and 0.2489
same,remaining activity at 3.1104 µM,"[4]; 13b 3110.400 nM, read-out: Residual activity (Vi/V0)",24.7%
same,Residual activity (Vi/V0),[4]; 13b 5184.000 nM,0.1828 and 0.1618 and 0.1725 and 0.1795 and 0.1597
same,Residual activity (Vi/V0),[4]; 13b 8640.000 nM,0.1228 and 0.1221 and 0.1079 and 0.1237 and 0.1244
same,remaining activity at 8.64 µM,"[4]; 13b 8640.000 nM, read-out: Residual activity (Vi/V0)",12.4%
same,Residual activity (Vi/V0),[4]; 13b 24000.000 nM,0.04988 and 0.04656 and 0.04753 and 0.05569 and 0.04454
same,remaining activity at 24 µM,"[4]; 13b 24000.000 nM, read-out: Residual activity (Vi/V0)",4.42%
same,Ki,"[4]; CatL, Z-RR-AMC, pH 4.0, 37 °C, read-out: Ki",293 nM
same,"ΔTm (for Mpro), 2:1 compound to protein mixing ratio",[3],"15,7 ± 0,1 °C and 15.7 °C"
same,"2:1, Tm average (Mpro)",[3],70.3 °C
CC(=O)N[C@@H](CC(C)C)C(=O)N[C@@H](CC(C)C)C(=O)N[C@H](C=O)CCCNC(=N)N [Leupeptin],"ΔTm (for Mpro), 2:1 compound to protein mixing ratio",[3],"1,2 ± 0,1 °C and 1.2 °C"
same,"2:1, Tm average (Mpro)",[3],56.2 °C
CC[C@@H](C)[C@H](NS(=O)(=O)c1cccc2ccccc12)C(=O)N[C@H](C=O)Cc1c[nH]c2ccccc12 [CLIIV],"viability at 48 h, 1e-05 µM",[2],98.8%
same,"viability at 48 h, 0.0001 µM",[2],101%
same,"viability at 48 h, 0.001 µM",[2],98%
same,"viability at 48 h, 0.01 µM",[2],100%
same,"viability at 48 h, 0.1 µM",[2],98.7%
same,"viability at 48 h, 1 µM",[2],102%
same,"viability at 48 h, 10 µM",[2],101%
CC(C)[C@H](NC(=O)OCc1ccccc1)C(=O)N[C@H](C=O)Cc1ccccc1 [CIII] (Cbz-Val-Phe-aldehyde),"viability at 48 h, 1e-05 µM",[2],95.8%
same,"viability at 48 h, 0.0001 µM",[2],95.4%
same,"viability at 48 h, 0.001 µM",[2],94.2%
same,"viability at 48 h, 0.01 µM",[2],95.3%
same,"viability at 48 h, 0.1 µM",[2],96%
same,"viability at 48 h, 1 µM",[2],98.9%
same,"viability at 48 h, 10 µM",[2],100%
CCCC(NC(=O)C(CC(C)C)NC(=O)OCc1ccccc1)C(=O)C(=O)NCc1ccccn1 (stereo not shown) [CIXII],"viability at 48 h, 1e-05 µM",[2],98.9%
same,"viability at 48 h, 0.0001 µM",[2],98.8%
same,"viability at 48 h, 0.001 µM",[2],98.3%
same,"viability at 48 h, 0.01 µM",[2],100%
same,"viability at 48 h, 0.1 µM",[2],98.8%
same,"viability at 48 h, 1 µM",[2],103%
same,"viability at 48 h, 10 µM",[2],106%
"CC(C)(C)OC(=O)NCC=O [BOCA, tert-Butyl N-2-oxoethylcarbamate]","ΔTm (for CatL), 20:1 compound to protein mixing ratio",[1]; [5],"4,4 ± 0,4 °C and 4.4 °C"
same,"2:1, Tm average (CatL)",[1]; 2:1 compound to protein,62.8 °C
same,"20:1, Tm average (CatL)",[1]; 20:1 compound to protein,67.5 °C
same,"ΔTm [K] for CatL, 2:1 ratio","[1]; Table S1, 2:1 ratio",-0.3 ± 0.1 K
same,"ΔTm (for Mpro), 2:1 compound to protein mixing ratio",[3],"-0,3 ± 0,1 °C"
same,"ΔTm (for Mpro), 2:1 compound to protein mixing ratio",[3]; listed as N-BOCAAA,-0.3 °C
same,"2:1, Tm average (Mpro)",[3],54.7 °C
"CC(C)[C@H](NC(=O)OCc1ccccc1)C(=O)N[C@H](C=O)Cc1ccccc1 [CI-III, N-Cbz-Val-Phe-aldehyde] (Cbz-Val-Phe-aldehyde)","2:1, Tm average (CatL)",[1]; 2:1 compound to protein,75.2 °C
same,"20:1, Tm average (CatL)",[1]; 20:1 compound to protein,81.2 °C
same,remaining activity at 0.000282 µM,"[4]; read-out: Residual activity (Vi/V0), CI-III 0.282 nM",60.4%
same,remaining activity at 0.000404 µM,"[4]; read-out: Residual activity (Vi/V0), CI-III 0.404 nM",45.4%
same,remaining activity at 0.000576 µM,"[4]; read-out: Residual activity (Vi/V0), CI-III 0.576 nM",33.4%
same,remaining activity at 0.000824 µM,"[4]; read-out: Residual activity (Vi/V0), CI-III 0.824 nM",23.1%
same,remaining activity at 0.001176 µM,"[4]; read-out: Residual activity (Vi/V0), CI-III 1.176 nM",16.3%
same,remaining activity at 0.001681 µM,"[4]; read-out: Residual activity (Vi/V0), CI-III 1.681 nM",10.8%
same,remaining activity at 0.002401 µM,"[4]; read-out: Residual activity (Vi/V0), CI-III 2.401 nM",6.67%
same,remaining activity at 0.00343 µM,"[4]; read-out: Residual activity (Vi/V0), CI-III 3.430 nM",4.1%
same,"2:1, Tm average (Mpro)",[3],54.5 °C
